Measured values taken from PubChem BioAssay AID248 (DTP/NCI, 2004).
Several values for one entry are separate records, joined by “and”; a condition that tells them apart may be missing. Identical values can stand only once. Inconclusive results and toxic doses are left out.

Tested on: L1210 leukemia ip in BDF1 mice, survival T/C
Test: NCI In Vivo Anticancer Drug Screen. Data for tumor model L1210 Leukemia (intraperitoneal) in B6D2F1 (BDF1) mice
Conditions: endpoint: mean survival time, higher = longer survival
Procedure, shortened: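 Tumor cells were implanted, animals were treated, and survival was followed. The result divides the treated measurement by the vehicle-control measurement.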

[1] = dose: 100.0 mg/kg/injection, schedule: Q04DX003 (ip), vehicle: Klucel (hydroxypropylcellulose) (HPC)
[2] = dose: 200.0 mg/kg/injection, schedule: Q04DX003 (ip), vehicle: Klucel (hydroxypropylcellulose) (HPC)
[3] = dose: 200.0 mg/kg/injection, schedule: Q01DX001 (ip), vehicle: saline
[4] = dose: 400.0 mg/kg/injection, schedule: Q01DX001 (ip), vehicle: saline
[5] = dose: 100.0 mg/kg/injection, schedule: Q01DX009 (ip), vehicle: Klucel (hydroxypropylcellulose) (HPC)
[6] = dose: 100.0 mg/kg/injection, schedule: Q04DX003 (ip), vehicle: saline
[7] = dose: 200.0 mg/kg/injection, schedule: Q04DX003 (ip), vehicle: saline
[8] = dose: 400.0 mg/kg/injection, schedule: Q04DX003 (ip), vehicle: saline
[9] = dose: 200.0 mg/kg/injection, schedule: Q01DX009 (ip), vehicle: Klucel (hydroxypropylcellulose) (HPC)
[10] = dose: 400.0 mg/kg/injection, schedule: Q04DX003 (ip), vehicle: Klucel (hydroxypropylcellulose) (HPC)
[11] = dose: 100.0 mg/kg/injection, schedule: Q04DX003 (ip), vehicle: saline with Tween-80
[12] = dose: 200.0 mg/kg/injection, schedule: Q04DX003 (ip), vehicle: saline with Tween-80
[13] = dose: 400.0 mg/kg/injection, schedule: Q04DX003 (ip), vehicle: saline with Tween-80
[14] = dose: 100.0 mg/kg/injection, schedule: Q04DX002 (ip), vehicle: saline with Tween-80

Cc1c2oc3c(C)ccc(C(=O)NC4C(=O)NC(C(C)C)C(=O)N5CCCC5C(=O)N(C)CC(=O)N(C)C(C(C)C)C(=O)OC4C)c3nc-2c(C(=O)NC2C(=O)NC(C(C)C)C(=O)N3CCCC3C(=O)N(C)CC(=O)N(C)C(C(C)C)C(=O)OC2C)c(NCCCO)c1=O (configuration not stated)
T/C (dose: 0.07 mg/kg/injection, schedule: Q04DX003 (ip), vehicle: saline + alcohol): 95 % of control
T/C (dose: 0.1 mg/kg/injection, schedule: Q01DX009 (ip), vehicle: saline + alcohol): 116 % of control
T/C (dose: 0.15 mg/kg/injection, schedule: Q04DX003 (ip), vehicle: saline + alcohol): 107 % of control
T/C (dose: 0.2 mg/kg/injection, schedule: Q01DX001 (ip), vehicle: saline + alcohol): 106 % of control
T/C (dose: 0.3 mg/kg/injection, schedule: Q04DX003 (ip), vehicle: saline + alcohol): 108 % of control
T/C (dose: 0.4 mg/kg/injection, schedule: Q01DX001 (ip), vehicle: saline + alcohol): 107 % of control
T/C (dose: 0.6 mg/kg/injection, schedule: Q04DX003 (ip), vehicle: saline + alcohol): 114 % of control
T/C (dose: 0.62 mg/kg/injection, schedule: Q04DX003 (ip), vehicle: saline + alcohol): 111 % of control
T/C (dose: 0.8 mg/kg/injection, schedule: Q01DX001 (ip), vehicle: saline + alcohol): 103 % of control
T/C (dose: 1.0 mg/kg/injection, schedule: Q01DX001 (ip), vehicle: saline + alcohol): 112 % of control
T/C (dose: 1.25 mg/kg/injection, schedule: Q04DX003 (ip), vehicle: saline + alcohol): 121 % of control
T/C (dose: 1.6 mg/kg/injection, schedule: Q01DX001 (ip), vehicle: saline + alcohol): 95 % of control
T/C (dose: 2.0 mg/kg/injection, schedule: Q01DX001 (ip), vehicle: saline + alcohol): 121 % of control
T/C (dose: 3.2 mg/kg/injection, schedule: Q01DX001 (ip), vehicle: saline + alcohol): 104 % of control
T/C (dose: 4.0 mg/kg/injection, schedule: Q01DX001 (ip), vehicle: saline + alcohol): 121 % of control
T/C (dose: 5.0 mg/kg/injection, schedule: Q04DX003 (ip), vehicle: saline + alcohol): 160 % of control
T/C (dose: 12.5 micrograms/kg/injection, schedule: Q01DX009 (ip), vehicle: saline + alcohol): 101 % of control and 116 % of control
T/C (dose: 25.0 micrograms/kg/injection, schedule: Q01DX009 (ip), vehicle: saline + alcohol): 98 % of control
T/C (dose: 50.0 micrograms/kg/injection, schedule: Q01DX009 (ip), vehicle: saline + alcohol): 106 % of control

Cn1c2ccccc2[n+]2c(N)scc12
T/C (dose: 12.5 mg/kg/injection, schedule: Q04DX002 (ip), vehicle: saline): 101 % of control
T/C (dose: 25.0 mg/kg/injection, schedule: Q04DX002 (ip), vehicle: saline): 115 % of control
T/C (dose: 50.0 mg/kg/injection, schedule: Q04DX002 (ip), vehicle: saline): 96 % of control and 91 % of control
T/C (dose: 100.0 mg/kg/injection, schedule: Q04DX002 (ip), vehicle: saline): 102 % of control

O=C(O)COc1ccccc1-c1ccccc1Cl
T/C [1]: 98 % of control
T/C [2]: 90 % of control

COc1ccccc1C(=O)OCC(=O)c1ccc(-c2ccccc2)cc1
T/C [3]: 91 % of control
T/C [4]: 94 % of control

Cc1cc(N=NC(=N)N)c(C(C)C)cc1NN=C(N)N
T/C (dose: 60.0 mg/kg/injection, schedule: Q01DX Z (oral), vehicle: carboxymethylcellulose (CMC)): 106 % of control
T/C (dose: 120.0 mg/kg/injection, schedule: Q01DX Z (oral), vehicle: carboxymethylcellulose (CMC)): 100 % of control
T/C (dose: 480.0 mg/kg/injection, schedule: Q01DX Z (oral), vehicle: carboxymethylcellulose (CMC)): 102 % of control

Nc1nc2ccc([N+](=O)[O-])cc2s1
T/C (dose: 50.0 mg/kg/injection, schedule: Q01DX009 (ip), vehicle: Klucel (hydroxypropylcellulose) (HPC)): 105 % of control
T/C [5]: 104 % of control
T/C [6]: 97 % of control
T/C [7]: 101 % of control
T/C [8]: 86 % of control

CC1(C)OC(=O)C(=Cc2cccc3ccc4ccccc4c23)C(=O)O1
T/C (dose: 100.0 mg/kg/injection, schedule: Q01DX001 (ip), vehicle: gum acacia): 100 % of control
T/C (dose: 200.0 mg/kg/injection, schedule: Q01DX001 (ip), vehicle: gum acacia): 97 % of control
T/C (dose: 400.0 mg/kg/injection, schedule: Q01DX001 (ip), vehicle: gum acacia): 101 % of control

NC(=S)N/N=C/c1c[nH]c2ccccc12
T/C [5]: 95 % of control
T/C [1]: 87 % of control
T/C [9]: 97 % of control
T/C [2]: 96 % of control
T/C [10]: 94 % of control

O=C1O/C(=C\c2ccccc2)C(O)=C1c1ccccc1
T/C (dose: 100.0 mg/kg/injection, schedule: Q01DX001 (ip), vehicle: saline with Tween-80): 100 % of control

C[N+]1(CCO)CC[N+](C)(CCCN2c3ccccc3Sc3ccc(Cl)cc32)CC1 (configuration not stated)
T/C (dose: 10.0 mg/kg/injection, schedule: Q01DX001 (ip), vehicle: carboxymethylcellulose (CMC)): 98 % of control
T/C (dose: 20.0 mg/kg/injection, schedule: Q01DX001 (ip), vehicle: carboxymethylcellulose (CMC)): 101 % of control
T/C (dose: 40.0 mg/kg/injection, schedule: Q01DX001 (ip), vehicle: carboxymethylcellulose (CMC)): 113 % of control

CC(C)C(CN)(CCCCN1CCOCC1)c1cccc2ccccc12 (configuration not stated)
T/C [11]: 100 % of control
T/C [12]: 95 % of control
T/C [13]: 95 % of control

Cc1cccc(C)c1NC(=O)NC(C)C
T/C [5]: 106 % of control
T/C [1]: 93 % of control
T/C [9]: 94 % of control
T/C [2]: 94 % of control
T/C (dose: 400.0 mg/kg/injection, schedule: Q01DX009 (ip), vehicle: Klucel (hydroxypropylcellulose) (HPC)): 99 % of control
T/C [10]: 93 % of control

c1ccc(N2CCN(c3c4ccccc4nc4ccccc34)CC2)cc1
T/C (dose: 75.0 mg/kg/injection, schedule: Q01DX001 (ip), vehicle: Klucel (hydroxypropylcellulose) (HPC)): 105 % of control
T/C (dose: 150.0 mg/kg/injection, schedule: Q01DX001 (ip), vehicle: Klucel (hydroxypropylcellulose) (HPC)): 105 % of control
T/C (dose: 300.0 mg/kg/injection, schedule: Q01DX001 (ip), vehicle: Klucel (hydroxypropylcellulose) (HPC)): 96 % of control

CCCCC(C=O)(CCN1CCCC1)c1cccc2ccccc12 (configuration not stated)
T/C (dose: 25.0 mg/kg/injection, schedule: Q04DX002 (ip), vehicle: saline with Tween-80): 88 % of control
T/C (dose: 50.0 mg/kg/injection, schedule: Q04DX002 (ip), vehicle: saline with Tween-80): 100 % of control
T/C [14]: 103 % of control

O=P(Cc1ccccc1)(N1CCOCC1)N1CCOCC1
T/C [6]: 100 % of control
T/C [7]: 93 % of control
T/C [8]: 104 % of control

COC(=O)/C(=C1/OC(=O)C(c2ccccc2)=C1O)c1ccccc1
T/C (dose: 25.0 mg/kg/injection, schedule: Q01DX009 (ip), vehicle: saline with Tween-80): 93 % of control
T/C (dose: 50.0 mg/kg/injection, schedule: Q01DX009 (ip), vehicle: saline with Tween-80): 95 % of control
T/C (dose: 100.0 mg/kg/injection, schedule: Q01DX009 (ip), vehicle: saline with Tween-80): 93 % of control
T/C [11]: 100 % of control

NNC(=O)C(Cc1cnc[nH]1)NC(=O)OCc1ccccc1 (configuration not stated)
T/C (dose: 100.0 mg/kg/injection, schedule: Q04DX002 (ip), vehicle: Klucel (hydroxypropylcellulose) (HPC)): 100 % of control
T/C (dose: 200.0 mg/kg/injection, schedule: Q04DX002 (ip), vehicle: Klucel (hydroxypropylcellulose) (HPC)): 90 % of control
T/C (dose: 400.0 mg/kg/injection, schedule: Q04DX002 (ip), vehicle: Klucel (hydroxypropylcellulose) (HPC)): 107 % of control

N#CC(Cc1ccccc1)(c1ccccc1)c1ccccc1
T/C (dose: 50.0 mg/kg/injection, schedule: Q01DX001 (ip), vehicle: saline): 112 % of control
T/C (dose: 100.0 mg/kg/injection, schedule: Q01DX001 (ip), vehicle: saline): 114 % of control
T/C [3]: 89 % of control
T/C [4]: 97 % of control

C=CCNC(=O)OCC
T/C [11]: 100 % of control
T/C [12]: 95 % of control
T/C [13]: 100 % of control

COc1cc(OC)cc(-n2cccc2)c1
T/C [14]: 90 % of control
T/C (dose: 200.0 mg/kg/injection, schedule: Q04DX002 (ip), vehicle: saline with Tween-80): 97 % of control
T/C (dose: 400.0 mg/kg/injection, schedule: Q04DX002 (ip), vehicle: saline with Tween-80): 87 % of control
